Reference: publication PMC7480105, “Wbox2: A clathrin terminal domain–derived peptide inhibitor of clathrin-mediated endocytosis” (The Journal of Cell Biology, 2020)
No end group written: not given here.

Tests used:
[1] = system: TfnR uptake via CME in ARPE/HPV cells; test: TfnR uptake (in-cell ELISA) after peptide preincubation; assay type: cell-based
Protocol: Peptides encoding the TAT sequence (YGRKKRRQRRR) followed by 10 amino acid sequences covering the four reported binding sites on the clathrin terminal domain (Fig. 7 A) were synthesized by GenScript (Piscataway, NJ) with >95% purity. Peptides were dissolved in dH2O and further diluted in PBS4+ (1× PBS buffer plus 0.2% BSA, 1 mM CaCl2, 1 mM MgCl2, and 5 mM D-glucose) or cell culture medium (for imaging) when applied to cells. Peptide solutions were stored at −20°C.
Internalization of TfnR, CD44, CD59, and Biotin-Tfn was quantified by in-cell ELISA following established protocols ([Conner and Schmid, 2003]; [Srinivasan et al., 2018]). Cells were seeded in 96-well plates (Costar) at 60–70% confluence and grown overnight. Before the assay, cells were starved for 30 min in PBS4+ at 37°C or treated with peptides in PBS4+ at 37°C for the indicated times. After starvation, cells were moved to 4°C, and culture medium was replaced with cold PBS4+ containing 5 µg/ml HTR-D65 (anti-TfnR mAb; [Schmid and Smythe, 1991]), anti-human CD44 or anti-human CD59 (BD PharMingen) or 5 µg/ml Biotin-Tfn (Sigma-Aldrich). For single-round assays, the above reagents were kept with cells for 20 min at 4°C and then washed out before uptake assay. For multiround assays, the above reagents were kept with cells throughout the uptake process. In parallel, some cells were kept at 4°C for the measurement of surface-bound ligands and blank controls, and some were incubated in a 37°C water bath for the indicated times. Acid wash (0.2 M acetic acid and 0.2 M NaCl, pH 2.3) was used to remove surface-bound antibodies, followed by washing with cold PBS. All were fixed with 4% PFA (Electron Microscopy Sciences) in PBS for 30 min at 37°C. 0.1% Triton X-100 was added for 6.5 min to permeabilize cells, followed by addition of blocking buffer. HTR-D65–, CD44-, and CD59-treated cells were blocked with Q-PBS (PBS, 2% BSA, 0.1% lysine, and 0.01% saponin, pH 7.4), and Biotin-Tfn–treated cells were blocked with 2% casein. Surface-bound and internalized HTR-D65, CD44, and CD59 were probed with goat anti-mouse antibody conjugated with HRP (Sigma-Aldrich), and Biotin-Tfn was probed with Streptavidin-POD conjugate (Sigma-Aldrich). Color was developed using o-phenylenediamine dihydrochloride (OPD) solution (Sigma-Aldrich), and absorbance was read at 490 nm (Biotek Synergy H1 Hybrid Reader). Cell number variation among wells was accounted for by bicinchoninic acid assay reading at 562 nm.

SNX9 = SNX9 (Homo sapiens, UniProt Q9Y5X1); test: Isothermal titration calorimetry with SNX9; assay type: binding; details: ITC
Source text: GUSSI was further used to output the figures presented.

TD–AP2 interactions = test: GST-TD (1–580) pulldown of AP2 from mouse brain extract; assay type: biochemical; details: increasing peptide concentrations, overnight at 4°C, Western blot, three independent runs (Fig. 9 B, C)
Protocol: A mouse brain was homogenized using a Dounce tissue grinder (Sartorius) in 1 ml MES buffer (100 mM Mes, 1 mM EGTA, 0.5 mM MgCl2, and 0.1 mM PMSF, pH 6.4). After spinning at 5,000 g and 4°C for 3 min, the supernatant was ultracentrifuged at 110,000 g for 60 min. The resulting pellet was then resuspended in extraction buffer (3 vol of 1 M Tris, pH 8, 1 vol Mes buffer, with added PMSF and DTT to 0.1 mM each) for 30 min at room temperature. The resuspended solution was ultracentrifuged at 110,000 g for 60 min to collect supernatant containing released coat proteins. The brain extract buffer was exchanged to pulldown reaction buffer (50 mM Tris, 150 mM NaCl, and 0.1 mM EGTA, pH 7.5) using zeba spin desalting columns (Thermo Fisher Scientific).
In the pulldown assay, 75 µg GST-TD (residues 1–580) in reaction buffer was mixed with coat protein fractions (10% of total extract from a mouse brain) and the indicated concentrations of peptides. The mixture was incubated with 50 µl of a 50% slurry of glutathione Sepharose 4B beads (ABT) and left to rotate overnight at 4°C. Subsequently, beads were collected by spinning down at 1,000 g for 2 min and washed twice with reaction buffer. The beads were resuspended in Laemmli sample buffer and denatured at 95°C before running on 7.5% SDS-PAGE and Western blotting.

cell viability = test: Cell viability, Cell Counting Kit 8 (CCK-8); assay type: cell-based; details: for cytotoxicity IC50 relative to concentration needed to inhibit CME: cytotoxicity vs CME inhibition
[2] = target: hinge + appendage domain of the AP2 β2 subunit (β2-HAD) (UniProt P63010); details: read-out: binding affinity KD to β2-HAD; ITC, 20°C, pH 7.4; 1.2 mM Wbox2 injected into 200 µM β2-HAD; A+B <–> AB model; binds a fraction of purified β2-HAD
Protocol: Binding of TAT, Wbox2_mutant, and Wbox2 to SNX9 and β2-HAD was investigated by ITC using a MicroCal iTC200 (GE Healthcare Life Sciences). Measurements were performed at 20°C in reaction buffer: 20 mM Hepes, 150 mM NaCl, and 1 mM TCEP, pH 7.4. Protein and peptide concentrations were determined by absorbance at 280 and 205 nm, respectively. The peptides were injected from a syringe in 21 steps up to a molar excess over the protein concentration. Titration curves were executed with NITPIC and fitted with SEDPHAT.

cytotoxicity = system: cytotoxicity; parameters: method as in Rosselli-Murai et al., 2018; details: ref Rosselli-Murai et al., 2018; cited from earlier work

Chain of SNX9 (Q9Y5X1 whole entry, species assumed): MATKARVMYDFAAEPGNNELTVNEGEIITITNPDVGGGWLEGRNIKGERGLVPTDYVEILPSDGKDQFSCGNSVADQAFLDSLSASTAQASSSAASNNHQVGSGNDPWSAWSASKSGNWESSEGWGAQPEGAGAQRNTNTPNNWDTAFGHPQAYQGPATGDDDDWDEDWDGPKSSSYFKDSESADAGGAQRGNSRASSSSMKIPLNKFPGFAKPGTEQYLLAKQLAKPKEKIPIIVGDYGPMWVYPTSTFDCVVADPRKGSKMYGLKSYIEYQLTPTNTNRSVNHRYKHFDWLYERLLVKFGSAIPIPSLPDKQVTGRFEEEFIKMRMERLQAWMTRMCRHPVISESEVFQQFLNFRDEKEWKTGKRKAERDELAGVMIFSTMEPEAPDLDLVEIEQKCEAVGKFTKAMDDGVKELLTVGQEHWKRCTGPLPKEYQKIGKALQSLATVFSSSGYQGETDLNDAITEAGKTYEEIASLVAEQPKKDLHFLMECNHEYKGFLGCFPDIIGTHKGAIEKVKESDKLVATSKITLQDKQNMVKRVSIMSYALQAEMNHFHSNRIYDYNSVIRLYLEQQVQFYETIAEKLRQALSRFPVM
Chain of hinge + appendage domain of the AP2 β2 subunit (β2-HAD) (P63010 2-937): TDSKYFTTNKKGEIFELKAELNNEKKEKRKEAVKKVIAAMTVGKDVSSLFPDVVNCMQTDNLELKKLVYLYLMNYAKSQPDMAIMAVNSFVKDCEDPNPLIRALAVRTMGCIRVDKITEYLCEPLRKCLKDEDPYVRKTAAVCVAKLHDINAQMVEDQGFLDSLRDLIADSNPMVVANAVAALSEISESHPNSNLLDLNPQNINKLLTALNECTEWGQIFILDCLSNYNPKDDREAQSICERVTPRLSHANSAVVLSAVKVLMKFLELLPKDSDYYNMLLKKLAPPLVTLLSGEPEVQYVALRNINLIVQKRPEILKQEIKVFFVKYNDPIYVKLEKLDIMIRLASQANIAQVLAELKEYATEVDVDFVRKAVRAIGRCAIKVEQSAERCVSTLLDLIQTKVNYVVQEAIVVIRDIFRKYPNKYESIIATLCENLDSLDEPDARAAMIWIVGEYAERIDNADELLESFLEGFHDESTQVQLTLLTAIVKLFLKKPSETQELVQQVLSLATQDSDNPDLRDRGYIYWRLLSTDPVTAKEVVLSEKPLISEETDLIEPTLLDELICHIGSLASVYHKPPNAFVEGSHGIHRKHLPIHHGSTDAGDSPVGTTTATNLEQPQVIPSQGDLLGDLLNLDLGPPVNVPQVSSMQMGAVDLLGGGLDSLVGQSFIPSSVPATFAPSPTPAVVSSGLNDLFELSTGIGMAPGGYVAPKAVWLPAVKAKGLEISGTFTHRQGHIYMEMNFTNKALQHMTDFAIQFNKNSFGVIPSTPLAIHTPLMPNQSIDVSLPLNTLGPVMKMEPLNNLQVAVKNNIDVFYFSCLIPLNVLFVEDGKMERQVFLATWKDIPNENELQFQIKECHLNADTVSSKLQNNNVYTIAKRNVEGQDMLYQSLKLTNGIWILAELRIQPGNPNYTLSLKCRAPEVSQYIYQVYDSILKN

## YGRKKRRQRRR [TAT, arginine-rich TAT peptide, negative control, reference compound]
[1]; 60-min preincubation at 37°C (Fig. 7 F), TAT at concentrations <100 µM
  inhibitory activity on TfnR uptake, concentration curve: did not inhibit
SNX9; 1.8 mM peptide injected into 50 µM SNX9
  interaction with SNX9 compared with Wbox2: much weaker interactions
TD–AP2 interactions
  inhibition of AP2 pulldown by GST-TD: much weaker inhibition

## YGRKKRRQRRRGFSCQIIGIS [Wbox2]
[1]; 60-min preincubation with peptide at 37°C, concentration curves, n = 4 replicates (Fig. 7 F), read-out: IC50 for inhibition of TfnR uptake
  IC50: ~3 µM
Cell viability; CCK-8, n = 4 replicates (Fig. S5)
  IC50 for cytotoxicity: > 40 µM
Cell viability; concentrations ≤30 µM, CCK-8, n = 4 replicates (Fig. S5)
  effect on cell viability: no effect
Cell viability
  cytotoxicity IC50 relative to concentration needed to inhibit CME: 10 fold
Cell viability; listed as CMEpi
  cytotoxicity IC50 relative to concentration needed to inhibit CME: ~ 10 fold
SNX9; 20°C, 20 mM Hepes, 150 mM NaCl, 1 mM TCEP, pH 7.4, 1.8 mM Wbox2 injected into 50 µM SNX9, two nonsymmetric sites model, read-out: binding affinity KD1, first Wbox2 binding site on SNX9
  Kd: 4 µM
[2]
  Kd: 37.5 µM

## pitstop
cytotoxicity
  cytotoxic concentration relative to CME-inhibitory concentration: cytotoxic at concentrations only approximately twofold higher
